pIC50: −log10 of the molar value.
Key:
Mus musculus [1] = species on record: Mus musculus; assay: animal or person; conditions: BALB/c, 6 h, read-out: INH
Description: Anti-inflammatory activity in BALB/c mouse model of Carrageenan-induced paw edema assessed as inhibition of edema at 5 mg/kg, ip measured upto 6 hrs relative to control

[2] = target: T1, Bifunctional epoxide hydrolase 2 (Mus musculus, UniProt P34914); assay: Inhibition of C57BL/6J mouse cortex sEH using 14,15-EET as substrate preincubated for 15 mins followed by substrate addition measured after 2 hrs by UPLC-MS/MS analysis
T1 sequence (P34914 whole entry): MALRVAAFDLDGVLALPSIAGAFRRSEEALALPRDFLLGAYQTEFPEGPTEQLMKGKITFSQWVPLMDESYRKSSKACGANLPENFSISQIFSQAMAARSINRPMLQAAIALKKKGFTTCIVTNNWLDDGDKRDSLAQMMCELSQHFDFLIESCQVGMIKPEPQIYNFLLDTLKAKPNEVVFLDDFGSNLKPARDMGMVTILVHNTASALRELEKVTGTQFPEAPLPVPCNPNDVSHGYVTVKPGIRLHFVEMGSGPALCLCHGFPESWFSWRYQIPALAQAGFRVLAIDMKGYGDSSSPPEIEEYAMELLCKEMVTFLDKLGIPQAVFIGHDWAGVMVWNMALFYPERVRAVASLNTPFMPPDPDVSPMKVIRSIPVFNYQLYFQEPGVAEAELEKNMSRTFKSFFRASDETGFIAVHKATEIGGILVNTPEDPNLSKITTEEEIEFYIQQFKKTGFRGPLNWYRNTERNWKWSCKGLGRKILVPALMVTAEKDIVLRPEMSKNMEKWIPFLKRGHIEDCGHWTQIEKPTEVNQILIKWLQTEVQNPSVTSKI

Mus musculus [3] = species on record: Mus musculus; assay: animal or person; conditions: BALB/c, 4 h, read-out: INH
Mus musculus [4] = species on record: Mus musculus; assay: animal or person; conditions: BALB/c, 2 h, read-out: INH
Description: Anti-inflammatory activity in BALB/c mouse model of Carrageenan-induced paw edema assessed as inhibition of edema at 5 mg/kg, ip measured after 2 hrs relative to control

Mus musculus [5] = species on record: Mus musculus; assay: animal or person; conditions: BALB/c, 3 h, read-out: INH
Description: Anti-inflammatory activity in BALB/c mouse model of Carrageenan-induced paw edema assessed as inhibition of edema at 5 mg/kg, ip measured after 3 hrs relative to control

Mus musculus [6] = species on record: Mus musculus; assay: animal or person; conditions: BALB/c, po, 1 h, read-out: INH
Description: Anti-inflammatory activity in BALB/c mouse model of Carrageenan-induced paw edema assessed as inhibition of edema at 20 mg/kg, IG measured after 1 hr relative to control

[7] = Cytotoxicity against HEK293T cells incubated overnight by CCK8 assay; conditions: human
[8] = Cytotoxicity against human HepG2 cells incubated overnight by CCK8 assay

| Compound | pIC50 [2] | also measured |
| --- | --- | --- |
| CC[C@H](C)C(=O)N1CCC(NC(=O)Nc2ccc(OC(F)(F)F)c(F)c2)CC1 |  | inhibition in vivo at 5 mg/kg (Mus musculus [1]): 39.2% |
| CC(C)CNC(=O)NC[C@@]1(C)CC[C@]2(C)CC[C@]3(C)C(=CC[C@@H]4[C@@]5(C)CC[C@H](O)C(C)(C)[C@@H]5CC[C@]43C)[C@@H]2C1 | 8.18 |  |
| CCC(=O)N1CCC(CNC(=O)NC[C@@]2(C)CC[C@]3(C)CC[C@]4(C)C(=CC(=O)[C@@H]5[C@@]6(C)CC[C@H](O[C@H]7O[C@H](CO)[C@@H](O)[C@H](O)[C@@H]7O)C(C)(C)[C@@H]6CC[C@]54C)[C@H]3C2)CC1 | 6.82 |  |
| CCC(=O)N1CCC(CNC(=O)NC[C@@]2(C)CC[C@]3(C)CC[C@]4(C)C(=CC(=O)[C@@H]5[C@@]6(C)CC[C@H](O[C@@H]7O[C@H](CO)[C@@H](O)[C@H](O)[C@@H]7O)C(C)(C)[C@@H]6CC[C@]54C)[C@@H]3C2)CC1 | 6.76 |  |
| CC1(C)[C@@H](O[C@@H]2O[C@H](CO)[C@@H](O)[C@H](O)[C@H]2O)CC[C@]2(C)[C@H]3C(=O)C=C4[C@@H]5C[C@@](C)(CNC(=O)NCC6CCOCC6)CC[C@]5(C)CC[C@@]4(C)[C@]3(C)CC[C@@H]12 | 6.35 |  |
| CC1(C)[C@@H](O[C@H]2OC[C@@H](O)[C@H](O)[C@H]2O)CC[C@]2(C)[C@H]3C(=O)C=C4[C@H]5C[C@@](C)(CNC(=O)NCC6CCOCC6)CC[C@]5(C)CC[C@@]4(C)[C@]3(C)CC[C@@H]12 | 6.35 |  |
| CC1(C)[C@@H](O[C@H]2O[C@H](CO)[C@@H](O)[C@H](O)[C@H]2O)CC[C@]2(C)[C@H]3C(=O)C=C4[C@@H]5C[C@@](C)(CNC(=O)NCC6CCC(OC(F)(F)F)CC6)CC[C@]5(C)CC[C@@]4(C)[C@]3(C)CC[C@@H]12 (stereo partly drawn) | 5.64 |  |
| CC1(C)C(=O)CC[C@]2(C)[C@H]3C(=O)C=C4[C@@H]5C[C@@](C)(CNC(=O)NCC6CCOCC6)CC[C@]5(C)CC[C@@]4(C)[C@]3(C)CC[C@@H]12 | 7.72 |  |
| CCC(=O)N1CCC(CNC(=O)NC[C@@]2(C)CC[C@]3(C)CC[C@]4(C)C(=CC(=O)[C@@H]5[C@@]6(C)CC[C@H](O)C(C)(C)[C@@H]6CC[C@]54C)[C@H]3C2)CC1 | 8.00 |  |
| CC1(C)[C@@H](O)CC[C@]2(C)[C@H]3C(=O)C=C4[C@@H]5C[C@@](C)(CNC(=O)NCc6ccc(OC(F)(F)F)cc6)CC[C@]5(C)CC[C@@]4(C)[C@]3(C)CC[C@@H]12 | 8.07 |  |
| CC1(C)[C@@H](O[C@@H]2OC[C@@H](O)[C@H](O)[C@H]2O)CC[C@]2(C)[C@H]3C(=O)C=C4[C@H]5C[C@@](C)(CNC(=O)NCC6CCOCC6)CC[C@]5(C)CC[C@@]4(C)[C@]3(C)CC[C@@H]12 | 6.36 |  |
| CC1(C)[C@@H](O[C@H]2O[C@H](CO)[C@@H](O)[C@H](O)[C@H]2O)CC[C@]2(C)[C@H]3C(=O)C=C4[C@H]5C[C@@](C)(CNC(=O)NCC6CCOCC6)CC[C@]5(C)CC[C@@]4(C)[C@]3(C)CC[C@@H]12 | 6.35 | inhibition in vivo at 5 mg/kg (Mus musculus [1]): 40.3% |
| CC1(C)[C@@H](O)CC[C@]2(C)[C@H]3C(=O)C=C4[C@H]5C[C@@](C)(CNC(=O)NCc6ccc(S(N)(=O)=O)cc6)CC[C@]5(C)CC[C@@]4(C)[C@]3(C)CC[C@@H]12 | 7.89 |  |
| CC1(C)[C@@H](O[C@H]2O[C@H](CO)[C@H](O)[C@H](O)[C@H]2O)CC[C@]2(C)[C@H]3C(=O)C=C4[C@H]5C[C@@](C)(CNC(=O)NCC6CCOCC6)CC[C@]5(C)CC[C@@]4(C)[C@]3(C)CC[C@@H]12 | 6.51 |  |
| CC1(C)C(=O)CC[C@]2(C)[C@H]3C(=O)C=C4[C@H]5C[C@@](C)(CNC(=O)NCC6CCOCC6)CC[C@]5(C)CC[C@@]4(C)[C@]3(C)CC[C@@H]12 | 7.87 |  |
| CC1(C)[C@@H](O)CC[C@]2(C)[C@H]3C(=O)C=C4[C@@H]5C[C@@](C)(CNC(=O)NCC6CCOCC6)CC[C@]5(C)CC[C@@]4(C)[C@]3(C)CC[C@@H]12 | 8.11 | inhibition in vivo at 20 mg/kg (Mus musculus [3]): 27.2% |
| CC(C)CNC(=O)NC[C@@]1(C)CC[C@]2(C)CC[C@]3(C)C(=CC(=O)[C@@H]4[C@@]5(C)CC[C@H](O)C(C)(C)[C@@H]5CC[C@]43C)[C@@H]2C1 | 7.69 |  |
| CC1(C)[C@@H](O)CC[C@]2(C)[C@H]3C(=O)C=C4[C@H]5C[C@@](C)(CNC(=O)NCc6ccc(OC(F)(F)F)cc6)CC[C@]5(C)CC[C@@]4(C)[C@]3(C)CC[C@@H]12 | 7.77 |  |

| Compound | pIC50 [2] | also measured |
| --- | --- | --- |
| CC1(C)[C@@H](O[C@@H]2O[C@H](CO)[C@H](O)[C@H](O)[C@H]2O)CC[C@]2(C)[C@H]3C(=O)C=C4[C@H]5C[C@@](C)(CNC(=O)NCC6CCOCC6)CC[C@]5(C)CC[C@@]4(C)[C@]3(C)CC[C@@H]12 | 6.27 |  |
| CC1(C)[C@@H](O[C@@H]2O[C@H](CO)[C@@H](O)[C@H](O)[C@H]2O)CC[C@]2(C)[C@H]3C(=O)C=C4[C@H]5C[C@@](C)(CNC(=O)NCC6CCOCC6)CC[C@]5(C)CC[C@@]4(C)[C@]3(C)CC[C@@H]12 | 6.52 | inhibition in vivo at 5 mg/kg (Mus musculus [4]): 43.2%; inhibition in vivo at 5 mg/kg (Mus musculus [5]): 42.4% |
| CCC(=O)N1CCC(CNC(=O)NC[C@@]2(C)CC[C@]3(C)CC[C@]4(C)C(=CC(=O)[C@@H]5[C@@]6(C)CC[C@H](O[C@H]7O[C@H](CO)[C@@H](O)[C@H](O)[C@@H]7O)C(C)(C)[C@@H]6CC[C@]54C)[C@@H]3C2)CC1 | 6.74 | inhibition in vivo at 20 mg/kg (Mus musculus [6]): 38.4% |
| CC1(C)[C@@H](O[C@H]2O[C@H](CO)[C@@H](O)[C@H](O)[C@H]2O)CC[C@]2(C)[C@H]3C(=O)C=C4[C@@H]5C[C@@](C)(CNC(=O)NCC6CCOCC6)CC[C@]5(C)CC[C@@]4(C)[C@]3(C)CC[C@@H]12 | 6.41 |  |
| CC1(C)[C@@H](O)CC[C@]2(C)[C@H]3CC=C4[C@@H]5C[C@@](C)(CNC(=O)NCC6CCOCC6)CC[C@]5(C)CC[C@@]4(C)[C@]3(C)CC[C@@H]12 | 7.99 |  |
| CC1(C)[C@@H](O[C@@H]2O[C@H](CO)[C@@H](O)[C@H](O)[C@@H]2O)CC[C@]2(C)[C@H]3C(=O)C=C4[C@H]5C[C@@](C)(CNC(=O)NCC6CCOCC6)CC[C@]5(C)CC[C@@]4(C)[C@]3(C)CC[C@@H]12 | 6.80 |  |
| CC(C)CNC(=O)NC[C@@]1(C)CC[C@]2(C)CC[C@]3(C)C(=CC(=O)[C@@H]4[C@@]5(C)CC[C@H](O)C(C)(C)[C@@H]5CC[C@]43C)[C@H]2C1 | 7.87 |  |
| CC1(C)[C@@H](O[C@@H]2O[C@H](CO)[C@@H](O)[C@H](O)[C@H]2O)CC[C@]2(C)[C@H]3C(=O)C=C4[C@@H]5C[C@@](C)(CNC(=O)NCC6CCC(OC(F)(F)F)CC6)CC[C@]5(C)CC[C@@]4(C)[C@]3(C)CC[C@@H]12 (stereo partly drawn) | 5.67 |  |
| CC1(C)[C@@H](O[C@H]2O[C@H](CO)[C@@H](O)[C@H](O)[C@H]2O)CC[C@]2(C)[C@H]3C(=O)C=C4[C@H]5C[C@@](C)(CNC(=O)NCc6ccc(OC(F)(F)F)cc6)CC[C@]5(C)CC[C@@]4(C)[C@]3(C)CC[C@@H]12 | 5.25 |  |
| CC1(C)[C@@H](O[C@@H]2O[C@H](CO)[C@@H](O)[C@H](O)[C@H]2O)CC[C@]2(C)[C@H]3C(=O)C=C4[C@H]5C[C@@](C)(CNC(=O)NCc6ccc(OC(F)(F)F)cc6)CC[C@]5(C)CC[C@@]4(C)[C@]3(C)CC[C@@H]12 | 5.43 |  |
| CC1(C)[C@@H](O)CC[C@]2(C)[C@H]3C(=O)C=C4[C@@H]5C[C@@](C)(CNC(=O)NCc6ccc(S(C)(=O)=O)cc6)CC[C@]5(C)CC[C@@]4(C)[C@]3(C)CC[C@@H]12 | 7.80 |  |
| CCC(=O)N1CCC(CNC(=O)NC[C@@]2(C)CC[C@]3(C)CC[C@]4(C)C(=CC(=O)[C@@H]5[C@@]6(C)CC[C@H](O[C@@H]7O[C@H](CO)[C@@H](O)[C@H](O)[C@@H]7O)C(C)(C)[C@@H]6CC[C@]54C)[C@H]3C2)CC1 | 6.82 |  |
| CC1(C)[C@@H](O)CC[C@]2(C)[C@H]3C(=O)C=C4[C@@H]5C[C@@](C)(CNC(=O)NCc6ccc(S(N)(=O)=O)cc6)CC[C@]5(C)CC[C@@]4(C)[C@]3(C)CC[C@@H]12 | 7.70 |  |
| CC1(C)[C@@H](O)CC[C@]2(C)[C@H]3C(=O)C=C4[C@H]5C[C@@](C)(CNC(=O)NCC6CCOCC6)CC[C@]5(C)CC[C@@]4(C)[C@]3(C)CC[C@@H]12 | 8.28 | pIC50 [7]: < 4.30; pIC50 [8]: < 4.30; inhibition in vivo at 20 mg/kg (Mus musculus [3]): 28.4% |
| CCC(=O)N1CCC(CNC(=O)NC[C@@]2(C)CC[C@]3(C)CC[C@]4(C)C(=CC(=O)[C@@H]5[C@@]6(C)CC[C@H](O)C(C)(C)[C@@H]6CC[C@]54C)[C@@H]3C2)CC1 | 8.25 |  |
| CC1(C)[C@@H](O)CC[C@]2(C)[C@H]3C(=O)C=C4[C@H]5C[C@@](C)(CNC(=O)NCc6ccc(S(C)(=O)=O)cc6)CC[C@]5(C)CC[C@@]4(C)[C@]3(C)CC[C@@H]12 | 8.01 |  |
| CC1(C)[C@@H](O[C@@H]2OC[C@@H](O)[C@@H](O)[C@@H]2O)CC[C@]2(C)[C@H]3C(=O)C=C4[C@H]5C[C@@](C)(CNC(=O)NCC6CCOCC6)CC[C@]5(C)CC[C@@]4(C)[C@]3(C)CC[C@@H]12 | 6.94 |  |

From ChEMBL document CHEMBL6092185, “Discovery of glycosidated glycyrrhetinic acid derivatives: Natural product-based soluble epoxide hydrolase inhibitors” (Eur J Med Chem, 2024)
